Test results taken from the NIST ThermoML archive (doi:10.1016/j.jct.2014.12.022).

Assay: molar heat capacity at constant pressure; xn = mol fraction of the nth substance listed
Conditions: 100 kPa, Liquid, Small sample (50 mg) DSC

CN1CCCC1=O [N-methylpyrrolidone] + c1ccccc1
molar heat capacity at constant pressure [J/K/mol]
Conditions	293.15 K	298.15 K	303.15 K
x1 = 0.0787	137.73	139.51	140.9
x1 = 0.1156	139.63	141.42	142.83
x1 = 0.168	142.27	144.04	145.46
x1 = 0.1983	143.75	145.51	146.92
x1 = 0.2249	145.03	146.77	148.18
x1 = 0.2634	146.83	148.55	149.94
x1 = 0.3065	148.78	150.46	151.83
x1 = 0.3325	149.91	151.58	152.93
x1 = 0.3617	151.15	152.8	154.13
x1 = 0.4106	153.13	154.74	156.04
x1 = 0.4367	154.13	155.73	157.02
x1 = 0.4635	155.13	156.71	157.98
x1 = 0.5008	156.45	158.01	159.26
x1 = 0.5598	158.37	159.91	161.13
x1 = 0.5952	159.42	160.95	162.15
x1 = 0.6245	160.24	161.75	162.94
x1 = 0.6616	161.18	162.69	163.85
x1 = 0.7099	162.28	163.76	164.9
x1 = 0.7494	163.06	164.51	165.62
x1 = 0.7748	163.51	164.93	166.02
x1 = 0.8011	163.92	165.31	166.38
x1 = 0.8319	164.35	165.68	166.72
x1 = 0.8767	164.84	166.08	167.06
x1 = 0.9152	165.15	166.28	167.2

Cc1cccc(Cl)c1 [3-chlorotoluene] + c1ccccc1
molar heat capacity at constant pressure [J/K/mol]
Conditions	293.15 K	298.15 K	303.15 K
x2 = 0.1056	169.49	170.68	171.79
x2 = 0.1477	167.26	168.43	169.51
x2 = 0.1746	165.85	167.02	168.08
x2 = 0.2065	164.21	165.37	166.4
x2 = 0.2347	162.78	163.93	164.95
x2 = 0.2856	160.26	161.4	162.4
x2 = 0.3148	158.85	160	160.98
x2 = 0.3452	157.42	158.56	159.53
x2 = 0.3899	155.37	156.52	157.48
x2 = 0.4132	154.33	155.48	156.44
x2 = 0.4499	152.73	153.89	154.85
x2 = 0.4967	150.76	151.94	152.9
x2 = 0.5231	149.69	150.88	151.84
x2 = 0.5505	148.6	149.81	150.77
x2 = 0.5836	147.32	148.55	149.52
x2 = 0.6335	145.46	146.73	147.72
x2 = 0.6625	144.42	145.71	146.71
x2 = 0.6988	143.15	144.47	145.5
x2 = 0.7207	142.41	143.74	144.78
x2 = 0.7756	140.58	141.98	143.06
x2 = 0.8045	139.65	141.08	142.18
x2 = 0.8466	138.32	139.8	140.94
x2 = 0.8845	137.14	138.67	139.84
x2 = 0.9197	136.05	137.63	138.84

Cc1ccc(Cl)cc1 [4-chlorotoluene] + c1ccccc1
molar heat capacity at constant pressure [J/K/mol]
Conditions	293.15 K	298.15 K	303.15 K
x2 = 0.0912	170.37	172.42	174.55
x2 = 0.1226	168.6	170.58	172.63
x2 = 0.1657	166.22	168.12	170.06
x2 = 0.2012	164.3	166.15	168.01
x2 = 0.2374	162.4	164.19	165.99
x2 = 0.2675	160.86	162.61	164.35
x2 = 0.3135	158.57	160.26	161.93
x2 = 0.3456	157.02	158.69	160.3
x2 = 0.3702	155.87	157.51	159.08
x2 = 0.4231	153.47	155.06	156.56
x2 = 0.4657	151.63	153.19	154.63
x2 = 0.5093	149.83	151.35	152.74
x2 = 0.5346	148.82	150.33	151.68
x2 = 0.5723	147.36	148.85	150.16
x2 = 0.6022	146.25	147.72	148.99
x2 = 0.6357	145.04	146.49	147.73
x2 = 0.6701	143.84	145.27	146.49
x2 = 0.6989	142.86	144.29	145.48
x2 = 0.7224	142.08	143.51	144.68
x2 = 0.7564	140.98	142.41	143.56
x2 = 0.8096	139.31	140.75	141.89
x2 = 0.8213	138.95	140.4	141.54
x2 = 0.8543	137.95	139.41	140.56
x2 = 0.8886	136.92	138.42	139.57
